From patent US20250235418A1, “Butyrate Analogues and Methods of Use for HIF Stabilization and Treatment of Bowel Disease” (THE REGENTS OF THE UNIVERSITY OF COLORADO, A BODY CORPORATE, priority 2022, published 2025)

Key:
[1] = system: PHD (2-OG accumulation) in T84 IECs; experiment: 2-OG levels in T84 cells as biomarker of PHD inhibition; assay type: cell-based; conditions: 3 h
Experimental: (B) 2-OG concentrations in T84 cells treated with 10 mM butyrate with or without 1 mM MCPA or 30 μM IOX2 for 3 h
The relationship between butyrate and HIF, were examined whether butyrate influences PHD activity by monitoring 2-OG levels. […] In this, we considered such 2-OG accumulation as a metabolic biomarker of PHD inhibition (FIG. 3A).

c2bbe cells = experiment: epithelial barrier formation by transepithelial electrical resistance (TEER); assay type: cell-based; conditions: 5 mM
Experimental: Barrier development in Caco-2 cells treated with Veh, BA or […] (5 mM); n=6. Data analyzed by Two-way ANOVA with Dunnett for post hoc correction and presented as mean±S.E.M, *p<0.05 **p<0.01, ***p<0.001, #BA, *MBA compared to veh in two independent experiments.
TEER of C2bbe cells exposed to 5 mM butyrate derivatives.
Therefore, we decided to study the effect of various butyrate derivatives in barrier function; in fact, sodium butyrate is an established pro-barrier factor. We studied epithelial barrier integrity through measurement of transepithelial electrical resistance (TEER), a typical assay for the quantitation of epithelial barrier strength. IEC c2bbe were exposed to butyrate derivatives (all at 5 mM) and TEERS were measured daily.

HIF regulated targets = experiment: intraperitoneal injection in C57BL/6 mice, HIF regulated targets (EPO, GLUT1); assay type: in vivo; conditions: IP, BA 73 mg/kg, MBA 80 mg/kg, 24h
Experimental: Erythropoietin (EPO) is regulated by HIF stabilization. (A) EPO protein in blood serum was assessed by mesoscale assay (n=6-8). qPCR mRNA expression of HIF target mGLUT1 in kidney (B) and colon tissue (C) (n=3-8). Data analyzed by One-way ANOVA with Tukey for post hoc correction and presented as mean±S.E.M of two independent experiments, *p<0.05, **p<0.01, ***p<0.001, ****p<0.0001 […]
At 24 h, mice were sacrificed followed by exsanguination, extraction of right kidney and distal colon for analysis of HIF stabilization and HIF target gene expression. SHBA induces HIF regulated targets in vivo. Erythropoietin (EPO) is regulated by HIF stabilization. (A) EPO protein in blood serum was assessed by mesoscale assay (n=6-8). (B) qPCR mRNA expression of HIF target mGLUT1 in colon tissue (n=3-4). Data are presented as mean±S.E.M of two independent experiments, *p<0.05, **p<0.01.
A typical physiologic response to hypoxia is the increase in red blood cell production. Naturally, HIF is in charge of this response by regulating cell-type specific gene expression that leads to increased levels of the hormone erythropoietin (EPO).[10] […] We lastly explored the in-vivo effects of MBA in mediating induction of genes tightly regulated by HIF. […] After 24h of treatment, they were sacrificed and quickly exsanguinated to measure EPO levels in serum. […] Furthermore, we studied the induction of GLUT1, another classic HIF target responsible for the transport of various monosaccharides. Kidney and colon tissue were analyzed by real-time PCR to compare BA and MBA head-to-head. […] These findings support the ability of MBA to stabilize HIF in-vivo leading to the induction of classic target genes and transcription of a tightly regulated protein EPO.

PHD2181-402 [2] = target: T1, PHD2181-402 (Homo sapiens, UniProt Q9GZT9); experiment: bioluminescent succinate detection assay of recombinant PHD2181-402 activity/inhibition; assay type: biochemical
T1 construct: made in house
T1 sequence (Q9GZT9 181-402): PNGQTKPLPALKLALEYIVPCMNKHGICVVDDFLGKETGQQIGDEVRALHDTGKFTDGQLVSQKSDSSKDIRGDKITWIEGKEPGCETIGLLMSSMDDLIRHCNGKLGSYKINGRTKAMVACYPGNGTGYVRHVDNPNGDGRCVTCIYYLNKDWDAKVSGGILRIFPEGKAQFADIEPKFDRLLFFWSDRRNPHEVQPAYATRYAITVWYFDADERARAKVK
Source text: To pinpoint if butyrate inhibits PHDs directly, we expressed recombinant PHD derived from the human PHD2 sequence. There are three human PHDs: PHD1, PHD2, and PHD3, with PHD2 being the most abundant and expressed in the majority of tissues, the most important regulator of HIF, particularly HIF-1α, and the only PHD that is embryonically lethal when deleted. PHD1 is exclusively localized to the nucleus, whereas PHD2 is mainly cytoplasmic, and PHD3 is both. […] Sequence comparisons and modeling studies indicate that the PHD2 active site is highly conserved among the PHDs.
IC50s depend on exact experimental conditions, making direct comparisons and global applications difficult.

[3] = system: HIF-1α in murine enteroids; experiment: HIF stabilization in differentiated murine enteroids; assay type: cell-based; conditions: 10 mM butyrate with or without 1 mM MCPA, 4 h
PHD2181-402 [4] = target: T1, PHD2181-402; experiment: WaterLOGSY 1D NMR binding to PHD2181-402; conditions: for binding to PHD2181-402 by WaterLOGSY: 10 mM SCFA, 25 μM PHD2181-402
Source text: Protons attached to C4 were selectively inverted and acted as source of magnetization transfer. […] (G) Protons attached to C2 were selectively inverted.
Measurements were repeated 3 times.
This method enables sensitive and robust detection of binding (dissociation constants as weak as μM to low mM) based on the magnetization transfer between water molecules, proteins, and ligands of interest in close proximity via dipolar proton-proton cross-relaxation (nuclear Overhauser effect, NOE). […] Binding and non-binding ligands can be distinguished in a WaterLOGSY spectrum via their opposite signs in relation to water for their corresponding peaks.
This technique allows for mapping of the ligand pharmacophore by monitoring the response of individual protons to an increase of ROEs contribution to the overall cross relaxation rate.

[5] = system: HIF target genes in T84 cells; experiment: real-time PCR of HIF target genes BNIP3 and CAIX in T84 cells; assay type: cell-based; conditions: 16h
Experimental: (A) Exposure of T84 cells to Veh, BA or MBA (5 mM, 16 h) induced HIF target gene expression of CAIX and BNIP3. […] (C) Non-targeting control and T84 HIF1b depleted cells were analyzed for HIF1b expression by western blotting, shown with a representative blot. Quantification of HIF1b decrease was performed using ACTB-normalized densitometry. qPCR data was analyzed by One-way ANOVA with Bonferroni for post hoc correction and presented as mean±S.E.M, **p<0.01, ***p<0.001, ****p<0.0001 of three independent experiments.
Following these findings, we then explored if the MBA-induced stabilization of HIF was reflected in the transcriptional regulation of target genes. We utilized real-time PCR to study the influence of MBA mediated HIF stabilization in the induction of established HIF targets, BNIP3 (cell survival) and CAIX (pH regulation).
Furthermore, to confirm MBA-induced HIF transcriptional activity, we quantified the induction of BNIP3 and CAIX by BA or MBA (5 mM, 16h) in lentiviral shRNA-mediated knockdown of HIF1β relative to non-targeting shRNA controls. […] These findings confirm that through MBA exposure, HIF is stabilized and it is transcriptionally active.

CCCC(=O)O [Butyrate, Butyric acid]
2-OG levels in the presence of MCPA ([1]; 10 mM butyrate with 1 mM MCPA): significantly increased
2-OG levels compared to control ([1]; 10 mM butyrate, 30 μM IOX2): significantly increased
barrier integrity over the course of the experiment (c2bbe cells): lose the integrity of their barrier
GLUT1 mRNA in colon tissue (HIF regulated targets): significantly increased in colon tissue
GLUT1 mRNA in kidney (HIF regulated targets): induction of GLUT1 in kidney
mode of PHD inhibition (PHD2181-402 [2]): noncompetitive
IC50 (PHD2181-402 [2]; 1 μM PHD2181-402, 10 μM 2-OG, 10-minute reaction, n=5-12, error: SEM, read-out: true half maximal inhibitory concentration (IC50) for PHD2181-402): 5.3 mM
Ki (PHD2181-402 [2]; IC50 to Ki conversion equation of Cer et al., read-out: noncompetitive Ki for PHD2181-402): 5.3 mM
HIF-1α protein expression [3]: increased HIF-1α protein expression
HIF-1α target gene expression [3]: induced expression of HIF-1α target genes
binding to PHD2181-402 by WaterLOGSY (PHD2181-402 [4]; listed as Butyric acid): indicating binding
binding to PHD2181-402 by WaterLOGSY (PHD2181-402 [4]; listed as butyrate): indicative of binding
binding to the 2-OG and PHD2181-402 complex by WaterLOGSY (PHD2181-402 [4]; 10 mM butyrate, 25 μM PHD2181-402, with 150 μM 2-OG): could not bind
induction of HIF target genes BNIP3 and CAIX ([5]; T84, 5 mM): significant induction
induction of BNIP3 and CAIX in cells lacking HIF1β ([5]; T84 HIF1β shRNA knockdown, 5 mM): complete loss of induction
